In US8574856B2, “Methods for determining the efficiency of a therapeutic” (Companion Diagnostics Inc., priority 2010, dated 2013):
Where “and” joins values, the source holds several entries; their conditions need not be identical. Equal entries are not always repeated.

Legend:
galactose oxidase = settings: dilute (3.5%) saliva; FIG. 17
peroxidase = assay: Peroxidase assay in saliva (Amplex Red); assay type: biochemical; settings: 500 ppm; pooled or unpooled saliva; 30 minutes; FIGS. 30-33
Description: To determine the effect of various GRAS compounds as inhibitors of peroxidase activity, a standard assay using Amplex® Red (Life Technologies), which releases a fluorescent oxidation product.
The test compounds, such as GRAS materials or cocktails of same, were prepared at a concentration of 500 ppm in distilled water. For the assay, 50 μl samples of test compounds were mixed with 20-30 μl of saliva (either “pooled” or “unpooled”) prior to the addition of Amplex® Red. […] Reactions were allowed to run for 30 minutes during these assays.

α-amylase [1] = biological target: T1, α-amylase (Homo sapiens, UniProt P0DUB6); settings: 100% saliva samples; FIG. 15
T1 sequence (P0DUB6 16-511): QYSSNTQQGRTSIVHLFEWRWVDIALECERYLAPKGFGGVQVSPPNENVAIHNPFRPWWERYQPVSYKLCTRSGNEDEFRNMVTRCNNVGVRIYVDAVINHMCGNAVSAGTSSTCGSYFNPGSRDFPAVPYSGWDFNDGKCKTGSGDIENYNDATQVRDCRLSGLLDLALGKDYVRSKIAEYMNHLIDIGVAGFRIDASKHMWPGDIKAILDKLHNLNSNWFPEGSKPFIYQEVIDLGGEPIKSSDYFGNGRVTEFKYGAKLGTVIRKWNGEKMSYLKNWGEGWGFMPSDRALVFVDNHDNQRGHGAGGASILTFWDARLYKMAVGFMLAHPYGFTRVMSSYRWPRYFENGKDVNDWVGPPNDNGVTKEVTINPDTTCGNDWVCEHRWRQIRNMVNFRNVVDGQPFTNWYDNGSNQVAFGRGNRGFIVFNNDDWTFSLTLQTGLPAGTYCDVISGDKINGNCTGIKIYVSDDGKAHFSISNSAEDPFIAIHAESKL
Source text: Enzymatic activity of α-amylase on the substrate yields 2-chloro-p-nitrophenol, which can be measured spectrophotometrically at 405 nm. The amount of α-amylase activity present in the experimental sample is directly proportional to the increase in absorbance at 405 nm.

α-amylase [2] = biological target: T1, α-amylase; assay: α-Amylase inhibition saliva screening, dilute (3.5%) saliva; assay type: biochemical; settings: for absorbance at 405 nm, Ave / absorbance at 405 nm, single readings: test compound prepared at 5,000 ppm, 37° C.; for α-Amylase Inhibitor Activity: dilute (3.5%) saliva, FIG. 14
Source text: Further details of these five compounds may also be seen in Table 4.

lysozyme = biological target: T2, lysozyme (Homo sapiens, UniProt P61626); assay: Lysozyme inhibition saliva screening, dilute (3.5%) saliva; assay type: biochemical; settings: FIG. 16
T2 sequence (P61626 19-148): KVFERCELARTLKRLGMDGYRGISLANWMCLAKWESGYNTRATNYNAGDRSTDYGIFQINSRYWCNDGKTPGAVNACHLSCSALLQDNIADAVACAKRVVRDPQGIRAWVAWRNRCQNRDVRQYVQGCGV
Source text: Further details of these five compounds may also be seen in Table 5.

In the case of COc1ccc(O)c(C(C)(C)C)c1 [CDI-39, 3-tert--butyl-hydroxyanisole], the “Galactose Oxidase Inhibitor Activity” value (galactose oxidase) is reported as “shown to have Galactose Oxidase Inhibitor Activity” and the peroxidase inhibition (peroxidase) is reported as “showed significant peroxidase inhibition capabilities”.

“Aluminum potassium sulfate dodecahydrate [CDI-42]” was tested, and the “Galactose Oxidase Inhibitor Activity” value (galactose oxidase) was “shown to have Galactose Oxidase Inhibitor Activity”, the “inhibition of α-Amylase” value (α-amylase [1]) was “shown to inhibit α-Amylase” and the “absorbance at 405 nm, Ave” value (α-amylase [2]; 0 min) was 0.92. For the same compound, the “absorbance at 405 nm, single readings” value (α-amylase [2]; 0 min) was 0.80 and 0.90 and 0.84, the “absorbance at 405 nm, Ave” value (α-amylase [2]; 5 min) was 1.85 and the “absorbance at 405 nm, single readings” value (α-amylase [2]; 5 min) was 1.80. The “absorbance at 405 nm, Ave” value (α-amylase [2]; 15 min) was 2.29, the “α-Amylase Inhibitor Activity” value (α-amylase [2]) was “shown to have α-Amylase Inhibitor Activity” and the peroxidase inhibition (peroxidase) was “showed significant peroxidase inhibition capabilities”.

For O=C(O)c1ccccc1 [CDI-40, Benzoic acid], the “Galactose Oxidase Inhibitor Activity” value (galactose oxidase) was “shown to have Galactose Oxidase Inhibitor Activity” and the “Lysozyme Inhibitor Activity” value (lysozyme) was “shown to have Lysozyme Inhibitor Activity”.

CC(=O)O [CDI-47, Acetic acid] was tested, and the “Galactose Oxidase Inhibitor Activity” value (galactose oxidase) was “shown to have Galactose Oxidase Inhibitor Activity” and the “Lysozyme Inhibitor Activity” value (lysozyme) was “shown to have Lysozyme Inhibitor Activity”.

With Cn1c(=O)c2c(ncn2C)n(C)c1=O [CDI-33, Caffeine] the peroxidase inhibition (peroxidase) was “showed significant peroxidase inhibition capabilities”.

Aluminum sulfate hydrate [CDI-34] was tested, and the “inhibition of α-Amylase” value (α-amylase [1]) was “shown to inhibit α-Amylase”, the “absorbance at 405 nm, Ave” value (α-amylase [2]; 0 min) was 0.40 and the “absorbance at 405 nm, single readings” value (α-amylase [2]; 0 min, sulfate hydrate) was 0.40 and 0.36 and 0.45. The “absorbance at 405 nm, Ave” value (α-amylase [2]; 5 min) was 0.50, the “absorbance at 405 nm, single readings” value (α-amylase [2]; 5 min, sulfate hydrate) was 0.49 and 0.50 and 0.52 and the “absorbance at 405 nm, Ave” value (α-amylase [2]; 15 min) was 0.56. For the same compound, the “absorbance at 405 nm, single readings” value (α-amylase [2]; 15 min, sulfate hydrate) was 0.53 and 0.61 and 0.54 and 0.56 and the “α-Amylase Inhibitor Activity” value (α-amylase [2]) was “shown to have α-Amylase Inhibitor Activity”.
